For ten compounds, T/C results are on record in PubChem BioAssay AID272 (DTP/NCI, 2004).

The experiment deals with Lewis lung carcinoma i.m., BDF1 mice, T/C %. Nature of the experiment: NCI In Vivo Anticancer Drug Screen. Data for tumor model Lewis Lung Carcinoma (intramuscular) in B6D2F1 (BDF1) mice. In a few lines:
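Antitumour activity is assessed in transplanted-tumour mice. Endpoint is survival or tumour size, normalised to vehicle-dosed controls (T/C).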

[1] abbreviates: endpoint: median survival time, dose: 0.5 mg/kg/injection, schedule: Q01DX011 (ip), vehicle: saline, higher = longer survival.
The mark [2] stands for this setting: endpoint: median survival time, dose: 25.0 mg/kg/injection, schedule: Q01DX011 (ip), vehicle: saline, higher = longer survival.
The mark [3] stands for this setting: endpoint: median survival time, dose: 50.0 mg/kg/injection, schedule: Q01DX011 (ip), vehicle: saline, higher = longer survival.
Where [4] appears, read: endpoint: mean tumor weight (est.), dose: 1.25 mg/kg/injection, schedule: Q01DX011 (ip), vehicle: saline, higher = larger tumour.
Setting [5] is: endpoint: mean tumor weight (est.), dose: 2.5 mg/kg/injection, schedule: Q01DX011 (ip), vehicle: saline, higher = larger tumour.
Where [6] appears, read: endpoint: mean tumor weight (est.), dose: 5.0 mg/kg/injection, schedule: Q01DX011 (ip), vehicle: saline, higher = larger tumour.
The mark [7] stands for this setting: endpoint: median survival time, dose: 1.25 mg/kg/injection, schedule: Q01DX011 (ip), vehicle: saline, higher = longer survival.
Setting [8] is: endpoint: median survival time, dose: 2.5 mg/kg/injection, schedule: Q01DX011 (ip), vehicle: saline, higher = longer survival.
The mark [9] stands for this setting: endpoint: median survival time, dose: 5.0 mg/kg/injection, schedule: Q01DX011 (ip), vehicle: saline, higher = longer survival.
Where [10] appears, read: endpoint: median survival time, dose: 100.0 mg/kg/injection, schedule: Q01DX011 (ip), vehicle: saline, higher = longer survival.
Where [11] appears, read: endpoint: median survival time, dose: 200.0 mg/kg/injection, schedule: Q01DX011 (ip), vehicle: saline, higher = longer survival.

Records with an inconclusive call do not appear.

In the case of `O=c1[nH]cc(N(CCCl)CCCl)c(=O)[nH]1`, the T/C (endpoint: median survival time, dose: 0.13 mg/kg/injection, schedule: Q01DX011 (ip), vehicle: other, higher = longer survival) was 104 % of control; the T/C (endpoint: median survival time, dose: 0.25 mg/kg/injection, schedule: Q01DX011 (ip), vehicle: other, higher = longer survival) was 110 % of control; the T/C (endpoint: median survival time, dose: 0.5 mg/kg/injection, schedule: Q01DX011 (ip), vehicle: other, higher = longer survival) was 102 % of control; the T/C under setting [1] is 92 % of control.

As for `Nc1ncnc2c1ccn2C1OC(CO)C(O)C1O` (stereo not given), the T/C was 90 % of control (endpoint: median survival time, dose: 0.1 mg/kg/injection, schedule: Q01DX011 (ip), vehicle: steriod suspending solution, higher = longer survival); 101 % of control (endpoint: median survival time, dose: 0.19 mg/kg/injection, schedule: Q01DX011 (ip), vehicle: steriod suspending solution, higher = longer survival); 106 % of control (endpoint: median survival time, dose: 0.25 mg/kg/injection, schedule: Q01DX011 (ip), vehicle: carboxymethylcellulose (CMC), higher = longer survival); 92 % of control (endpoint: median survival time, dose: 0.38 mg/kg/injection, schedule: Q01DX011 (ip), vehicle: steriod suspending solution, higher = longer survival); 98 % of control (endpoint: median survival time, dose: 0.5 mg/kg/injection, schedule: Q01DX009 (ip), vehicle: Klucel (hydroxypropylcellulose) (HPC), higher = longer survival); 100 % of control (endpoint: median survival time, dose: 0.5 mg/kg/injection, schedule: Q01DX011 (ip), vehicle: carboxymethylcellulose (CMC), higher = longer survival). The T/C (endpoint: median survival time, dose: 0.75 mg/kg/injection, schedule: Q01DX011 (ip), vehicle: steriod suspending solution, higher = longer survival) was 86 % of control; the T/C (endpoint: median tumor weight (est.), dose: 0.1 mg/kg/injection, schedule: Q01DX011 (ip), vehicle: steriod suspending solution, higher = larger tumour) was 70 % of control; the T/C (endpoint: median tumor weight (est.), dose: 0.19 mg/kg/injection, schedule: Q01DX011 (ip), vehicle: steriod suspending solution, higher = larger tumour) was 96 % of control; the T/C (endpoint: median tumor weight (est.), dose: 0.38 mg/kg/injection, schedule: Q01DX011 (ip), vehicle: steriod suspending solution, higher = larger tumour) is 70 % of control; the T/C (endpoint: median tumor weight (est.), dose: 0.75 mg/kg/injection, schedule: Q01DX011 (ip), vehicle: steriod suspending solution, higher = larger tumour) was 84 % of control.

Regarding `C=CCN1/C(=C/C=C\c2sc3ccccc3[n+]2CC=C)Sc2ccccc21`, the T/C was 89 % of control (endpoint: mean tumor weight (est.), dose: 0.07 mg/kg/injection, schedule: Q01DX011 (ip), vehicle: saline, higher = larger tumour); 87 % of control (endpoint: mean tumor weight (est.), dose: 0.13 mg/kg/injection, schedule: Q01DX011 (ip), vehicle: saline, higher = larger tumour); 117 % of control (endpoint: mean tumor weight (est.), dose: 0.25 mg/kg/injection, schedule: Q01DX011 (ip), vehicle: saline, higher = larger tumour); 93 % of control (endpoint: mean tumor weight (est.), dose: 0.5 mg/kg/injection, schedule: Q01DX011 (ip), vehicle: saline, higher = larger tumour); 113 % of control (endpoint: mean tumor weight (est.), dose: 1.0 mg/kg/injection, schedule: Q01DX011 (ip), vehicle: saline, higher = larger tumour); 93 % of control (endpoint: median survival time, dose: 0.06 mg/kg/injection, schedule: Q01DX011 (ip), vehicle: saline, higher = longer survival). Further, the T/C is 86 % of control (endpoint: median survival time, dose: 0.13 mg/kg/injection, schedule: Q01DX011 (ip), vehicle: saline, higher = longer survival); 87 % of control (endpoint: median survival time, dose: 0.25 mg/kg/injection, schedule: Q01DX011 (ip), vehicle: saline, higher = longer survival); 89 % of control under setting [1].

As for `CNc1ccc(O)cc1`, the T/C (endpoint: mean tumor weight (est.), dose: 6.25 mg/kg/injection, schedule: Q01DX011 (ip), vehicle: saline, higher = larger tumour) is 97 % of control; the T/C (endpoint: mean tumor weight (est.), dose: 12.5 mg/kg/injection, schedule: Q01DX011 (ip), vehicle: saline, higher = larger tumour) was 97 % of control; the T/C (endpoint: mean tumor weight (est.), dose: 25.0 mg/kg/injection, schedule: Q01DX011 (ip), vehicle: saline, higher = larger tumour) is 89 % of control; the T/C (endpoint: mean tumor weight (est.), dose: 50.0 mg/kg/injection, schedule: Q01DX011 (ip), vehicle: saline, higher = larger tumour) is 82 % of control; the T/C (endpoint: median survival time, dose: 6.25 mg/kg/injection, schedule: Q01DX011 (ip), vehicle: saline, higher = longer survival) is 101 % of control; the T/C (endpoint: median survival time, dose: 12.5 mg/kg/injection, schedule: Q01DX011 (ip), vehicle: saline, higher = longer survival) is 105 % of control. Moreover, the T/C reads like this: under setting [2], 100 % of control; under setting [3], 101 % of control.

Consider `C(=C\c1ccccc1)/C[P+](c1ccccc1)(c1ccccc1)c1ccccc1`, for which the T/C reads like this: (endpoint: mean tumor weight (est.), dose: 0.6 mg/kg/injection, schedule: Q01DX011 (ip), vehicle: saline, higher = larger tumour) 101 % of control; under setting [4], 100 % of control; under setting [5], 105 % of control; under setting [6], 93 % of control; (endpoint: median survival time, dose: 0.6 mg/kg/injection, schedule: Q01DX011 (ip), vehicle: saline, higher = longer survival) 98 % of control; under setting [7], 107 % of control. The T/C under setting [8] is 98 % of control and the T/C under setting [9] is 100 % of control.

For the compound `CCOC(=O)N1c2ccccc2C=CC1C#N` (stereo not given), the T/C runs as follows: (endpoint: mean tumor weight (est.), dose: 50.0 mg/kg/injection, schedule: Q01DX011 (ip), vehicle: saline with Tween-80, higher = larger tumour) 67 % of control; (endpoint: mean tumor weight (est.), dose: 100.0 mg/kg/injection, schedule: Q01DX011 (ip), vehicle: saline with Tween-80, higher = larger tumour) 91 % of control; (endpoint: mean tumor weight (est.), dose: 200.0 mg/kg/injection, schedule: Q01DX011 (ip), vehicle: saline with Tween-80, higher = larger tumour) 72 % of control; (endpoint: mean tumor weight (est.), dose: 400.0 mg/kg/injection, schedule: Q01DX011 (ip), vehicle: saline with Tween-80, higher = larger tumour) 59 % of control; (endpoint: median survival time, dose: 50.0 mg/kg/injection, schedule: Q01DX011 (ip), vehicle: saline with Tween-80, higher = longer survival) 94 % of control; (endpoint: median survival time, dose: 100.0 mg/kg/injection, schedule: Q01DX011 (ip), vehicle: saline with Tween-80, higher = longer survival) 90 % of control. The T/C (endpoint: median survival time, dose: 200.0 mg/kg/injection, schedule: Q01DX011 (ip), vehicle: saline with Tween-80, higher = longer survival) is 96 % of control and the T/C (endpoint: median survival time, dose: 400.0 mg/kg/injection, schedule: Q01DX011 (ip), vehicle: saline with Tween-80, higher = longer survival) was 88 % of control.

On to `CCOC(N)=O`, for which the T/C by setting is: under setting [2], 110 % of control; under setting [10], 100 % of control; under setting [11], 104 % of control; (endpoint: median survival time, dose: 400.0 mg/kg/injection, schedule: Q01DX011 (ip), vehicle: saline, higher = longer survival) 110 % of control.

In the case of `CCCCCCCCCCCCCCCC[N+](C)(C)c1nc(Cl)nc(Cl)n1`, the T/C reads like this: (endpoint: mean tumor weight (est.), dose: 7.5 mg/kg/injection, schedule: Q01DX011 (ip), vehicle: saline, higher = larger tumour) 92 % of control; (endpoint: mean tumor weight (est.), dose: 15.0 mg/kg/injection, schedule: Q01DX011 (ip), vehicle: saline, higher = larger tumour) 65 % of control; (endpoint: median survival time, dose: 7.5 mg/kg/injection, schedule: Q01DX011 (ip), vehicle: saline, higher = longer survival) 106 % of control; (endpoint: median survival time, dose: 15.0 mg/kg/injection, schedule: Q01DX011 (ip), vehicle: saline, higher = longer survival) 112 % of control.

On to `N#CSCc1ccc(Cl)cc1Cl`, for which the T/C is, setting by setting: (endpoint: mean tumor weight, dose: 25.0 mg/kg/injection, schedule: Q01DX011 (ip), vehicle: saline, higher = larger tumour) 75 % of control; (endpoint: mean tumor weight, dose: 50.0 mg/kg/injection, schedule: Q01DX011 (ip), vehicle: saline, higher = larger tumour) 56 % of control; (endpoint: mean tumor weight, dose: 100.0 mg/kg/injection, schedule: Q01DX011 (ip), vehicle: saline, higher = larger tumour) 25 % of control; (endpoint: mean tumor weight, dose: 200.0 mg/kg/injection, schedule: Q01DX011 (ip), vehicle: saline, higher = larger tumour) 47 % of control; under setting [2], 86 % of control; under setting [3], 95 % of control. Moreover, the T/C is, setting by setting: under setting [10], 119 % of control; under setting [11], 106 % of control.

In the case of `Cc1ccc2c(C)c3c(ccc4ccccc43)c[n+]2c1`, the T/C by setting is: under setting [4], 87 % of control; under setting [5], 96 % of control; under setting [6], 72 % of control; under setting [7], 106 % of control; under setting [8], 110 % of control; under setting [9], 100 % of control.
